{"source": "patent US8962322B2", "about": "“Enhancers of induced pluripotent stem cell reprogramming” (City of Hope, priority 2012, dated 2015)", "key": {"[1]": {"test_system": "human fibroblast cells (IMR90)", "test": "human iPSC derivation from 4F (OSKM)-transduced IMR90 fibroblasts", "format": "cell-based", "protocol": "It has been shown that compound OAC1 (Oct4-activating compound I) and two of its structural analogs OAC2 and OAC3 can enhance reprogramming efficiency, when added to the reprogramming mixture along with the four transcription factors, Oct4, Sox2, Klf4, and c-Myc (OSKM), in mouse system. The OAC compounds were tested to determine if they can enhance reprogramming efficiency in human system. The reprogramming process was performed as described in the diagram (FIG. 14a). Briefly, human fibroblast cells (IMR90) were induced to reprogram into induced pluripotent stem cells (iPSCs) using the four reprogramming factors (4F), OSKM. The day when the cells were transduced with the four reprogramming factors was referred to as day 0. Cells were cultured in IMR90 media for six days. On day 6, the transduced cells were split and seeded onto feeders. On day 7, IMR90 culture media was changed to hESC culture media and started compound treatment. Compound treatment was lasted for one week. Cells were monitored for the appearance of human embryonic stem cell (ESC)-like colonies. On day 9, several small human ESC-like colonies appeared in both 4F+OAC1 and 4F+OAC2-treated cells, however, human ESC-like colonies were not observed in 4F+vehicle (4F)-treated cells until day 11. To determine the effect of OAC on the efficiency of human iPSC derivation, the number of human ESC-like colonies were counted under all three conditions at day 18. Both OAC 1 and its structural analog OAC2 increased the number of human ESC-like colonies more than two-fold (FIG. 14b, c). The human ESC-like colonies were picked from either 4F or 4F+OAC-treated cells and expanded under human ESC culture conditions. These cells were able to expand and stably produce human iPSC clones with characteristic human ESC-like morphology (FIG. 14d)."}, "Tet1": {"test_system": "Tet1", "test": "RT-PCR of Tet1 mRNA in treated MEFs", "format": "cell-based, mouse", "details": "versus vehicle", "protocol": "The up-regulation of Tet1 is intriguing, as this is a gene that converts 5-methylcytosine to 5-hydroxymethylcytosine and may be involved in active DNA demethylation.\nRT-PCR analysis: Total RNA was purified with Trizol reagent (Invitrogen). Reverse transcription was performed with 1 μg of RNA using Omniscript® Reverse Transcription Kit (Qiagen). Quantitative PCR was performed using iTaq SYBR Green Supermix with Rox (Bio-rad) in Applied Biosystem Step one plus real-time PCR system. […]"}, "OCT4 promoter": {"test_system": "OCT4 promoter", "test": "Bisulfite genomic sequencing of OCT4 promoter in IMR90 fibroblasts", "format": "cell-based, human", "details": "IMR90 fibroblasts treated for two days", "protocol": "To uncover the mechanism of OAC 1-mediated improvement of reprogramming efficiency, it was tested whether OAC 1 functions through regulation of DNA methylation status on the endogenous Oct4 promoter. Human IMR90 fibroblast cells were treated with OAC1 or vehicle control for two days.\nBisulfite Genomic Sequencing: Genomic DNA was isolated from human IMR90 fibroblasts, MEFs, mouse ESCs, 4F+OAC1 and 4F+OAC2-iPSCs by digestion with proteinase K, followed by phenolchloroform extraction and ethanol precipitation. Bisulfite conversion of genomic DNAs was carried out using the EZ DNA Methylation-Gold kit (Zymo Research) according to manufacturer's instruction. The bisulfite-modified DNA was then used as a template for PCR to amplify the promoter regions of Oct4 and Nanog using PCR primers for human OCT4 (1), mouse Oct4 (52) and Nanog (2). The amplified products were cloned into the pCR2.1-TOPO cloning vector (Invitrogen), and 10 randomly selected clones were sequenced with T7 or M13R primers."}}, "data": [{"molecule": "O=C(Nc1cc2cc[nH]c2cn1)c1ccccc1", "note": "[OAC1, N-(1H-6-azaindol-5-yl)benzamide]", "values": [{"measurement": "day at which human ESC-like colonies appeared", "setting": "[1]; IMR90, 4F+compound, day 0 = transduction, 4F+vehicle day 11", "result": 9, "unit": "days"}, {"measurement": "increase in the number of human ESC-like colonies", "setting": "[1]; IMR90, day 18, versus 4F", "result": "more than two"}, {"measurement": "Tet1 mRNA expression", "setting": "Tet1", "result": "up-regulated"}, {"measurement": "OCT4 promoter methylation status versus DMSO", "setting": "OCT4 promoter", "result": "no significant difference"}]}]}
